In PubChem BioAssay (NCI):
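Each compound was tested at five concentrations against cells in 96-well plates for 48 hours. GI50 = concentration required for 50% inhibition of growth. Definition used: TGI = concentration required for complete inhibition of growth.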

Columns and labels:
Test in all cases: growth of human tumour cells (NCI), 48 h
KM12 colon = test system: KM12 colon
MDA-MB-231 breast = test system: MDA-MB-231 breast
NCI-H522 lung = test system: NCI-H522 lung
RXF 393 renal = test system: RXF 393 renal
SW-620 colon = test system: SW-620 colon
U251 CNS = test system: U251 CNS
BT-549 breast = test system: BT-549 breast
HL-60(TB) leukemia = test system: HL-60(TB) leukemia
MCF7 breast = test system: MCF7 breast
A498 renal = test system: A498 renal

C=C(C)[C@@H]1CC[C@]2(COC(=O)c3ccccc3C(=O)O)CC[C@]3(C)[C@H](CC[C@@H]4[C@@]5(C)CC[C@H](OC(=O)c6ccccc6C(=O)O)C(C)(C)[C@@H]5CC[C@]43C)[C@@H]12
GI50 (KM12 colon): 8.47 µM | TGI (KM12 colon): > 100 µM | GI50 (MDA-MB-231 breast): 25 µM | TGI (MDA-MB-231 breast): 69.3 µM | GI50 (NCI-H522 lung): 22.8 µM | TGI (NCI-H522 lung): 96.9 µM | GI50 (RXF 393 renal): 22.6 µM | TGI (RXF 393 renal): 77.3 µM | GI50 (SW-620 colon): 97.7 µM | TGI (SW-620 colon): > 100 µM | GI50 (U251 CNS): 23.1 µM | TGI (U251 CNS): 77.7 µM | GI50 (BT-549 breast): 33.3 µM | TGI (BT-549 breast): > 100 µM | GI50 (HL-60(TB) leukemia): > 100 µM | TGI (HL-60(TB) leukemia): > 100 µM | GI50 (MCF7 breast): > 100 µM | TGI (MCF7 breast): > 100 µM | GI50 (A498 renal): 40.6 µM | TGI (A498 renal): > 100 µM

COc1ncc(-c2ccc3ncnc(Nc4cccc(Cl)c4)c3c2)cc1NS(C)(=O)=O
GI50 (KM12 colon): 3.55 µM | TGI (KM12 colon): 16.1 µM | GI50 (MDA-MB-231 breast): 1.99 µM | TGI (MDA-MB-231 breast): 19.6 µM | GI50 (NCI-H522 lung): 2.14 µM | TGI (NCI-H522 lung): 18.4 µM | GI50 (RXF 393 renal): 1.42 µM | TGI (RXF 393 renal): 4.79 µM | GI50 (SW-620 colon): 3.22 µM | TGI (SW-620 colon): 17.7 µM | GI50 (U251 CNS): 4.11 µM | TGI (U251 CNS): 31.6 µM | GI50 (BT-549 breast): 1.92 µM | TGI (BT-549 breast): 9.32 µM | GI50 (HL-60(TB) leukemia): 0.848 µM | TGI (HL-60(TB) leukemia): 16.4 µM | GI50 (MCF7 breast): 0.404 µM | TGI (MCF7 breast): 11.1 µM | GI50 (A498 renal): 0.605 µM | TGI (A498 renal): 2.94 µM

COc1ccc(C(=O)c2cc(C)c(OC)c(C)c2)c(OC)c1OC(=O)C(Cl)Cl
GI50 (KM12 colon): 0.0362 µM | TGI (KM12 colon): > 100 µM | GI50 (MDA-MB-231 breast): 0.075 µM | TGI (MDA-MB-231 breast): > 100 µM | GI50 (NCI-H522 lung): 0.0286 µM | TGI (NCI-H522 lung): 1.2 µM | GI50 (RXF 393 renal): 0.257 µM | TGI (RXF 393 renal): > 100 µM | GI50 (SW-620 colon): 0.0377 µM | TGI (SW-620 colon): > 100 µM | GI50 (U251 CNS): 0.0468 µM | TGI (U251 CNS): > 100 µM | GI50 (BT-549 breast): 0.0293 µM | TGI (BT-549 breast): 1.7 µM | GI50 (HL-60(TB) leukemia): 0.0251 µM | TGI (HL-60(TB) leukemia): 0.0719 µM | GI50 (MCF7 breast): 0.2 µM | TGI (MCF7 breast): > 100 µM | GI50 (A498 renal): 1.74 µM | TGI (A498 renal): 5.89 µM

COc1cc(NC(=O)c2cc3ccccc3cc2O)c(OC)cc1Cl
GI50 (KM12 colon): 2.52 µM | TGI (KM12 colon): 7.25 µM | GI50 (MDA-MB-231 breast): 1.57 µM | TGI (MDA-MB-231 breast): 4.79 µM | GI50 (NCI-H522 lung): 1.89 µM | TGI (NCI-H522 lung): 9.41 µM | GI50 (RXF 393 renal): 2.24 µM | TGI (RXF 393 renal): 8.01 µM | GI50 (SW-620 colon): 3.08 µM | TGI (SW-620 colon): > 34.5 µM | GI50 (U251 CNS): 1.87 µM | TGI (U251 CNS): 5.23 µM | GI50 (BT-549 breast): 1.65 µM | TGI (BT-549 breast): 5.05 µM | GI50 (HL-60(TB) leukemia): 1.32 µM | TGI (HL-60(TB) leukemia): 15.3 µM | GI50 (MCF7 breast): 1.93 µM | TGI (MCF7 breast): 7.13 µM | GI50 (A498 renal): 1.96 µM | TGI (A498 renal): 5.04 µM

Cn1c(=S)c2[nH]c(SCc3cccnc3)nc2n(C)c1=O
TGI (KM12 colon): > 100 µM | TGI (MDA-MB-231 breast): > 100 µM | TGI (NCI-H522 lung): > 100 µM | TGI (RXF 393 renal): > 100 µM | TGI (SW-620 colon): > 100 µM | TGI (U251 CNS): > 100 µM | TGI (BT-549 breast): > 100 µM | TGI (HL-60(TB) leukemia): > 100 µM | TGI (MCF7 breast): > 100 µM | TGI (A498 renal): > 100 µM

COC(=O)C(Br)(C(=O)OC)C(Br)C(Br)C(Br)c1ccccc1 (stereo not given)
GI50 (KM12 colon): 7.83 µM | TGI (KM12 colon): 21 µM | GI50 (MDA-MB-231 breast): 3.11 µM | TGI (MDA-MB-231 breast): 9.71 µM | GI50 (NCI-H522 lung): 0.573 µM | TGI (NCI-H522 lung): 1.53 µM | GI50 (RXF 393 renal): 1.72 µM | TGI (RXF 393 renal): 3.26 µM | GI50 (SW-620 colon): 1.64 µM | TGI (SW-620 colon): 3.07 µM | GI50 (U251 CNS): 3.99 µM | TGI (U251 CNS): 10.6 µM | GI50 (BT-549 breast): 12.4 µM | TGI (BT-549 breast): 25.3 µM | GI50 (HL-60(TB) leukemia): 2.09 µM | TGI (HL-60(TB) leukemia): 6.03 µM | GI50 (MCF7 breast): 1.67 µM | TGI (MCF7 breast): 5.07 µM | GI50 (A498 renal): 15.5 µM | TGI (A498 renal): 29.4 µM

CCN1C(=O)N[C@H]2[C@@H]3NC(=O)c4ccc(Cl)n4[C@@H]3C[C@]21O
GI50 (KM12 colon): 1.06 µM | TGI (KM12 colon): 33.7 µM | GI50 (MDA-MB-231 breast): 0.822 µM | TGI (MDA-MB-231 breast): 7.25 µM | GI50 (NCI-H522 lung): 0.288 µM | TGI (NCI-H522 lung): 1.76 µM | GI50 (RXF 393 renal): 0.333 µM | TGI (RXF 393 renal): 2.69 µM | GI50 (SW-620 colon): 0.511 µM | TGI (SW-620 colon): > 100 µM | GI50 (U251 CNS): 0.329 µM | TGI (U251 CNS): 13.5 µM | GI50 (BT-549 breast): 0.41 µM | TGI (BT-549 breast): 4.29 µM | GI50 (HL-60(TB) leukemia): 0.242 µM | TGI (HL-60(TB) leukemia): 0.634 µM | GI50 (MCF7 breast): 0.242 µM | TGI (MCF7 breast): 1.5 µM | GI50 (A498 renal): 1.82 µM | TGI (A498 renal): 6.16 µM

COc1ccccc1C(=O)Nc1ccc(Cl)c(C(=O)OC(C)C)c1
TGI (KM12 colon): > 100 µM | TGI (MDA-MB-231 breast): > 100 µM | TGI (NCI-H522 lung): > 81.4 µM | TGI (RXF 393 renal): > 100 µM | TGI (SW-620 colon): > 100 µM | TGI (U251 CNS): > 100 µM | TGI (BT-549 breast): > 100 µM | TGI (HL-60(TB) leukemia): > 65.2 µM | TGI (MCF7 breast): > 100 µM | TGI (A498 renal): > 90.4 µM

COc1ccc2c(ccc3oc([N+](=O)[O-])cc32)c1
GI50 (KM12 colon): 0.288 µM | TGI (KM12 colon): 1.21 µM | GI50 (MDA-MB-231 breast): 0.167 µM | TGI (MDA-MB-231 breast): 0.596 µM | GI50 (NCI-H522 lung): 0.0952 µM | TGI (NCI-H522 lung): 0.319 µM | GI50 (RXF 393 renal): 0.0702 µM | TGI (RXF 393 renal): 0.223 µM | GI50 (SW-620 colon): 0.178 µM | TGI (SW-620 colon): 10.8 µM | GI50 (U251 CNS): 0.197 µM | TGI (U251 CNS): 0.578 µM | GI50 (BT-549 breast): 0.187 µM | TGI (BT-549 breast): 0.521 µM | GI50 (HL-60(TB) leukemia): 0.0514 µM | TGI (HL-60(TB) leukemia): 0.487 µM | GI50 (MCF7 breast): 0.176 µM | TGI (MCF7 breast): 3 µM | GI50 (A498 renal): 0.0852 µM | TGI (A498 renal): 0.305 µM

COc1ccccc1CNC(=O)/C=C/c1ccc(O)c(O)c1
GI50 (KM12 colon): 59.4 µM | TGI (KM12 colon): > 100 µM | GI50 (MDA-MB-231 breast): 22.6 µM | TGI (MDA-MB-231 breast): > 100 µM | GI50 (NCI-H522 lung): 22.7 µM | TGI (NCI-H522 lung): > 100 µM | GI50 (RXF 393 renal): 54.9 µM | TGI (RXF 393 renal): > 100 µM | GI50 (SW-620 colon): > 100 µM | TGI (SW-620 colon): > 100 µM | GI50 (U251 CNS): 42 µM | TGI (U251 CNS): > 100 µM | GI50 (BT-549 breast): 40.2 µM | TGI (BT-549 breast): > 100 µM | GI50 (HL-60(TB) leukemia): 45.2 µM | TGI (HL-60(TB) leukemia): > 100 µM | GI50 (MCF7 breast): > 100 µM | TGI (MCF7 breast): > 100 µM | GI50 (A498 renal): > 100 µM | TGI (A498 renal): > 100 µM

CCCCCC/C=C\CCCCCCCCCc1cccc(OC)c1O
TGI (KM12 colon): > 100 µM | TGI (MDA-MB-231 breast): > 100 µM | TGI (NCI-H522 lung): > 100 µM | TGI (RXF 393 renal): > 100 µM | TGI (SW-620 colon): > 100 µM | TGI (U251 CNS): > 100 µM | TGI (BT-549 breast): > 100 µM | TGI (HL-60(TB) leukemia): > 100 µM | TGI (MCF7 breast): > 100 µM | TGI (A498 renal): > 100 µM
